Conditions: for mass density / speed of sound / viscosity: 101.33 kPa, Liquid; for viscosity: Concentric cylinders viscometry

CCn1cc[n+](C)c1.CS(=O)(=O)[O-] [1-ethyl-3-methylimidazolium methanesulfonate]
Conditions | mass density [kg/m3] | speed of sound [m/s] | surface tension liquid-gas [mN/m] | viscosity [mPa·s]
303 K | 1247 | 1796 | 47.8 | 120
308 K | 1243.2 | 1778 | 47.4 | 87
313 K | 1240.2 | 1764 | 47 | 63
318 K | 1237.6 | 1752 | 46.7 | 48
323 K | 1234.4 | 1738 | 46.1 | 37
328 K | 1232.4 | 1727 | 45.7 | 29
333 K | 1230.2 | 1708 | 45.4 | 20

CCCCCCCCOS(=O)(=O)[O-].CCCCn1cc[n+](C)c1 [1-butyl-3-methylimidazolium octyl sulfate]
Conditions | mass density [kg/m3] | speed of sound [m/s] | surface tension liquid-gas [mN/m]
303 K | 1060.2 | 1461 | 35.7
308 K | 1057.8 | 1450 | 35.2
313 K | 1053.2 | 1430 | 34.9
318 K | 1050.8 | 1419 | 34.7
323 K | 1046.4 | 1406 | 34.3
328 K | 1042.2 | 1391 | 33.9
333 K | 1039.8 | 1380 | –

CCCCn1cc[n+](C)c1.F[P-](F)(F)(F)(F)F [1-butyl-3-methylimidazolium hexafluorophosphate]
Conditions | mass density [kg/m3] | speed of sound [m/s] | surface tension liquid-gas [mN/m] | viscosity [mPa·s]
303 K | 1359.4 | 1433 | 45.3 | 190
308 K | 1358.2 | 1417 | 45 | 150
313 K | 1353.2 | 1408 | 44.7 | 132
318 K | 1349.8 | 1395 | 44.4 | 106
323 K | 1346.8 | 1384 | 44.1 | 90
328 K | 1343.8 | 1374 | 43.8 | 75
333 K | 1340.6 | 1363 | 43.5 | 58

From the NIST ThermoML archive (doi:10.1021/je5000617)
